Source: PMC5464773 (eLife, 2017)
Like-named read-outs stand apart in the source and are kept apart here.

Legend:
[1] = molecular target: T1, Mcl-1 (Homo sapiens, UniProt Q07820); experiment: Competition fluorescence polarization (anisotropy) with fluoresceinated BIM; assay type: binding
T1 construct: c-myc
Description: C-myc-tagged receptors were used for all Bcl-2 homologs, as previously described ([DeBartolo et al., 2012]; [Dutta et al., 2010]). Plates were mixed at 23°C for 3 hr. Plates were read again at 24 to check equilibration. Experiments were done in at least triplicate. Data were fit, as described for competition fluorescence anisotropy experiments in [Foight et al. (2014]), to a complete competitive binding model (equation 17 in [Roehrl et al. [2004]]) using a Python script.

[2] = test system: PC-3 cells; experiment: iBH3, cytochrome c release in unprimed cells (BAK/BAX activator function); assay type: cell-based
Description: (§1) To test the possibility that FS1, FS2 or FS3 may directly activate BAK and BAX, we measured cytochrome c release in two ‘unprimed’ cell lines (PC-3 and SF295). Unprimed cells require BAK/BAX activators to release cytochrome c ([Certo et al., 2006]).
(§2) Cell line identities were confirmed by STR profiling.
(§3) Plates were incubated at 25°C for 1 hr.

[3] = molecular target: T2, Bcl-w (Homo sapiens, UniProt Q92843); experiment: Competition fluorescence polarization (anisotropy) with fluoresceinated BIM; assay type: binding
T2 construct: c-myc
T2 sequence (Q92843 1-193): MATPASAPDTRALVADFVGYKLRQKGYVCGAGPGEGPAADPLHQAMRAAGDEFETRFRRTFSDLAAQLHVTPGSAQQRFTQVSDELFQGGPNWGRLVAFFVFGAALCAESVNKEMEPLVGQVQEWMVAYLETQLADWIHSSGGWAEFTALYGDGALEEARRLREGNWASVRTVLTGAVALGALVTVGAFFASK
Description: (§4) Plates were mixed at 23°C for 3 hr. Plates were read again at 24 to check equilibration. Experiments were done in at least triplicate.

[4] = molecular target: T3, Bfl-1 (Homo sapiens, UniProt Q16548); experiment: as above; assay type: binding; conditions: for Ki / Ki (M) Bfl-1: competition FP source data; for Ki: mean of three replicates
T3 construct: c-myc
T3 sequence (Q16548 1-175): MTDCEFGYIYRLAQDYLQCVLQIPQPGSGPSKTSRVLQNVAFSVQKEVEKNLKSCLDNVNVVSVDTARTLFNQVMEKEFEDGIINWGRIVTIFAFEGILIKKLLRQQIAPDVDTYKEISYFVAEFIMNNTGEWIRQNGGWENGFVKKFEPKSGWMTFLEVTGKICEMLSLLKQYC
Description: as §4

[5] = molecular target: T4, Bcl-xL (Homo sapiens, UniProt Q07817); experiment: as above; assay type: binding
T4 construct: c-myc
T4 sequence (Q07817 whole entry): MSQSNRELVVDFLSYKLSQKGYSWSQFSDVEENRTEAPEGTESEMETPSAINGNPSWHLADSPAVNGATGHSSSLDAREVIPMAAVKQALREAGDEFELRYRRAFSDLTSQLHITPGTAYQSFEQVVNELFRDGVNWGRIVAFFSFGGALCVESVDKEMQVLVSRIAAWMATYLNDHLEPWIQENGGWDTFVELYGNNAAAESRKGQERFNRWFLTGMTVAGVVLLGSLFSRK
Description: as §4

[6] = molecular target: T5, Bcl-2 (Homo sapiens, UniProt P10415); experiment: as above; assay type: binding
T5 construct: c-myc
T5 sequence (P10415 whole entry): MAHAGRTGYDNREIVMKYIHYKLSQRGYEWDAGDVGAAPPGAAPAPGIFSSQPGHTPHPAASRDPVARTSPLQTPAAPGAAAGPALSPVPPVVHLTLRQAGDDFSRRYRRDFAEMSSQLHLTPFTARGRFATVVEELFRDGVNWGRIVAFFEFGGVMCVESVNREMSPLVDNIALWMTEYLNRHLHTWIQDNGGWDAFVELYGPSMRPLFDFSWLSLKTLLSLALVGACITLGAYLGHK
Description: as §4

[7] = test system: BCR-ABL-expressing B-lineage acute lymphoblastic leukemia cells dependent on Bcl-2; experiment: iBH3 profiling, cytochrome c release; assay type: cell-based; conditions: iBH3 fits Bcl-2, sigmoidal dose-response (variable slope)
Description: (§5) As an additional test for on-pathway activity, we measured cytochrome c release in the same engineered cell lines in response to peptide treatment, using iBH3 profiling ([Ryan et al., 2016]).
(§6) The creation and characterization of the BCR-ABL-expressing B-lineage acute lymphoblastic leukemia suspension cell lines with engineered dependencies on human versions of anti-apoptotic genes is detailed in [Koss et al. (2016)]). Cells were grown in RPMI (Life Technologies, Carlsbad, CA) with 10% fetal bovine serum, 2 mM L-glutamine, 10 mL/L 100x Pen/Strep (Life Technologies # 15140122), 25 mM HEPES and 10 mL/L 100x NEAA (Life Technologies, 11140050). The adherent cell lines PC-3 (RRID: CVCL_0035) and SF295 (RRID: CVCL_1690) are from the NCI60 panel ([Lorenzi et al., 2009]) and were grown in RPMI (Life Technologies) with 10% fetal bovine serum, 2 mM L-glutamine and 10 mL/L 100x Pen/Strep (Life Technologies # 15140122 ). Cell line identities were confirmed by STR profiling. The Lookout Mycoplasma PCR detection kit (Sigma) was used to detect mycoplasma infection.
(§7) Cells were suspended in MEB buffer (150 mM mannitol, 50 mM KCl, 10 mM HEPES, 5 mM succinic acid, 20 μM EGTA, 20 μM EDTA, 0.1% BSA, final pH 7.4) at 0.5*10^6 cells/mL (adherent lines) or 2 *10^6 cells/mL (suspension lines). Cell suspension was added to a 384 non-binding well plate (10 μL/well) containing peptides at 2X final concentration in MEB with 20 μg/mL digitonin. Plates were incubated at 25°C for 1 hr. To terminate exposure, 10 μL of 4% formaldehyde in PBS was added to each well, plates were incubated for 10 min before addition of 10 μL N2 buffer (1.7M Tris, 1.25M glycine, pH 9.1) for 5 min. 10 μL of staining buffer (2% Tween20, 10% BSA, PBS) containing 10 μg/mL Hoechst 33342 and 1.25 μg/mL anti-cytochrome c Alexa647 conjugate (BioLegend clone 6H2.B4) was added to each well before sealing the plate and shaking overnight. The median fluorescence of the cytochrome c channel of Hoechst positive singlets was recorded by an IntelliCyt iQue Screener Plus. Cytochrome c release was determined by normalizing the median fluorescence intensity (MFI) data to positive control wells (Alamethicin) and negative control wells (DMSO) as follows: Cytochromecrelease=1−(MFIsample−MFIAlamethicin)/(MFIDMSO−MFIAlamethicin)

[8] = test system: BCR-ABL-expressing B-lineage acute lymphoblastic leukemia cells dependent on Mcl-1; conditions: iBH3 fits Mcl-1, sigmoidal dose-response (variable slope)
Description: as §5, §6, §7

[9] = test system: SF295 cells; assay type: cell-based
Description: as §1, §2, §3

[10] = competition FP source data, replicate 1
[11] = competition FP source data, replicate 2
[12] = competition FP source data, replicate 3
[13] = iBH3 fit PC-3, sigmoidal dose-response (variable slope), fit of 4 replicates
[14] = competition FP source data, mean of three replicates, values above 5 μM are reported as > 5 μM in the figures, read-out: mean Ki (M) Bcl-w
[15] = SF295 cells, iBH3 fit, sigmoidal dose-response (variable slope)
[16] = competition FP source data, mean of three replicates, values above 5 μM are reported as > 5 μM in the figures, read-out: mean Ki (M) Mcl-1
[17] = competition FP, 50 nM c-myc-tagged receptor + 25 nM fluoresceinated BIM, Tris pH 7.8, 23°C, 3 hr, mean ± SD of three replicates, read-out: Ki (nM) Mcl-1
[18] = competition FP, 50 nM c-myc-tagged receptor + 25 nM fluoresceinated BIM, Tris pH 7.8, 23°C, 3 hr, mean ± SD of three replicates, read-out: Ki (nM) Bcl-w
[19] = competition FP, 50 nM c-myc-tagged receptor + 25 nM fluoresceinated BIM, Tris pH 7.8, 23°C, 3 hr, mean ± SD of three replicates, read-out: Ki (nM) Bcl-xL
[20] = competition FP, 50 nM c-myc-tagged receptor + 25 nM fluoresceinated BIM, Tris pH 7.8, 23°C, 3 hr, mean ± SD of three replicates, read-out: Ki (nM) Bcl-2

T1 sequence (Q07820 whole entry): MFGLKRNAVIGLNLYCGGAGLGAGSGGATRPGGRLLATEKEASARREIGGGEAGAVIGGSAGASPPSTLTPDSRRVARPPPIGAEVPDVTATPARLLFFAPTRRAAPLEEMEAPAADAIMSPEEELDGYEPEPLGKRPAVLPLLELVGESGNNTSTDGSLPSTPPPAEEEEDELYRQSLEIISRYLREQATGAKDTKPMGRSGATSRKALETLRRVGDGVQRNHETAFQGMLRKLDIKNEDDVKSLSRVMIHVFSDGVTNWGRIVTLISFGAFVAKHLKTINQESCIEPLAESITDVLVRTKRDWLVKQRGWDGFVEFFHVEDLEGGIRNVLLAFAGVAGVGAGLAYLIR

| Compound | Ki (M) Mcl-1 [1, 10] [M] | Ki (M) Mcl-1 [1, 11] [M] | Ki (M) Mcl-1 [1, 12] [M] | Ki [3, 14] [M] | Ki (M) Bcl-w [3, 10] [M] | Ki (M) Bcl-w [3, 11] [M] | Ki (M) Bcl-w [3, 12] [M] | Ki [4] [nM] | Ki (M) Bfl-1 ([4]; replicate 1) [M] | Ki (M) Bfl-1 ([4]; replicate 2) [M] | Ki (M) Bfl-1 ([4]; replicate 3) [M] | Ki (M) Bcl-xL [5, 10] [M] | Ki (M) Bcl-xL [5, 11] [M] | Ki (M) Bcl-xL [5, 12] [M] | Ki (M) Bcl-2 [6, 10] [M] | Ki (M) Bcl-2 [6, 11] [M] | Ki (M) Bcl-2 [6, 12] [M] | Ki [1, 16] [M] | Ki [1, 17] [M] | Ki [3, 18] [M] | also measured |
| --- | --- | --- | --- | --- | --- | --- | --- | --- | --- | --- | --- | --- | --- | --- | --- | --- | --- | --- | --- | --- | --- |
| CC[C@H](C)[C@H](NC(=O)[C@H](CCC(=O)O)NC(=O)[C@H](CCCNC(=N)N)NC(=O)[C@H](C)NC(=O)[C@H](Cc1c[nH]c2ccccc12)NC(=O)[C@H](CCC(N)=O)NC(C)=O)C(=O)NCC(=O)N[C@@H](C)C(=O)N[C@@H](CCC(N)=O)C(=O)N[C@@H](CC(C)C)C(=O)N[C@@H](CCCNC(=N)N)C(=O)N[C@@H](CCCNC(=N)N)C(=O)N[C@@H](CCSC)C(=O)N[C@@H](C)C(=O)N[C@@H](CC(=O)O)C(=O)N[C@@H](CC(=O)O)C(=O)N[C@@H](CC(C)C)C(=O)N[C@@H](CC(N)=O)C(=O)N[C@@H](C)C(=O)N[C@@H](CCC(N)=O)C(=O)N[C@@H](Cc1ccc(O)cc1)C(=O)N[C@@H](CCC(=O)O)C(=O)N[C@@H](CCCNC(=N)N)C(N)=O [PUMA, reference compound] | 2.28e-09 | 3.28e-09 | 1.63e-09 | 2.97e-09 | 4.44e-09 | 4.04e-09 | 4.31e-10 | 4.84 | 4.9e-09 | 5.4e-09 | 4.23e-09 | 2.23e-09 | 4.17e-09 | 4.19e-10 | 4.27e-09 | 9.91e-09 | 2.68e-09 | – | – | – | peptide concentration leading to cytochrome c release in unprimed cells ([2]; PC-3, unprimed, iBH3, 25°C, 1 hr): observed cytochrome c release; LogEC50 (best-fit value) ([2]; iBH3 fit PC-3, log of EC50, x axis Log [Peptide M], sigmoidal dose-response (variable slope)): -6.309; HillSlope (best-fit value) ([2]; iBH3 fit PC-3, sigmoidal dose-response (variable slope)): 1.567; Bottom (best-fit value) [2, 13]: 0.1477; Top (best-fit value) [2, 13]: 0.7911; LogEC50 (best-fit value) ([7]; log of EC50, x axis Log [Peptide M]): -7.436; HillSlope (best-fit value) [7]: 1.78; Bottom (best-fit value) ([7]; fit of 3 replicates): 0.2923; Top (best-fit value) ([7]; fit of 3 replicates): 1.01; HillSlope (best-fit value) [8]: ~ 1.358; Bottom (best-fit value) ([8]; fit of 3 replicates): ~ -276.9; Top (best-fit value) ([8]; fit of 3 replicates): 0.9859; peptide concentration leading to cytochrome c release in unprimed cells ([9]; SF295, unprimed, iBH3, 25°C, 1 hr): observed cytochrome c release; Bottom (best-fit value) [9, 15]: -0.02393; HillSlope (best-fit value) [9, 15]: 0.4226; Top (best-fit value) [9, 15]: 0.958; LogEC50 (best-fit value) ([9]; SF295 cells, iBH3 fit, sigmoidal dose-response (variable slope), log of peptide concentration in M): -5.945 |
| Ac-QWVREIAAQLRRMADDLNAQYER-NH2 [FS2_N/Puma_C] | 5.7e-06 | 6.84e-05 | 0.00018 | 8.83e-06 | 9.94e-06 | 6.82e-06 | 9.74e-06 | 594 | 4.65e-07 | 6.79e-07 | 6.37e-07 | – | – | – | 1.99e-06 | 1.85e-06 | 2.17e-06 | 8.46e-05 | 3e-10 ± 3e-10 | 1.2e-09 ± 3e-10 | Ki [5, 19]: 2.4 ± 1.2 nM; Ki ([6]; competition FP source data, mean of three replicates, values above 5 μM are reported as > 5 μM in the figures, read-out: mean Ki (M) Bcl-2): 2e-06 M; Ki [6, 20]: 1.4e-08 ± 2e-09 M |
| Ac-QWAREIGAGLRRAADDVNAQVER-NH2 [Puma_N/FS2_C] | 6.72e-10 | 1.94e-10 | 1.4e-10 | – | – | – | – | – | – | – | – | 3.68e-09 | 1.31e-09 | 2.24e-09 | – | – | – | 3.36e-10 | > 5e-06 | > 5e-06 | Ki ([5]; competition FP source data, mean of three replicates, values above 5 μM are reported as > 5 μM in the figures, read-out: mean Ki (M) Bcl-xL): 2.41 nM; Ki [5, 19]: 1100 ± 300 nM; Ki [6, 20]: 2e-06 ± 1.6e-07 M |
| Ac-RPVIWIAQGLRRAGDEVNAYVAR-NH2 [BIM-FS2] | – | – | – | – | – | – | – | – | 7.75e-07 | 7.87e-07 | 5.89e-07 | – | – | – | – | – | – | – | – | – | fold weaker binding to Bfl-1 than native BIM ([4]; ratio of Ki values from competition FP): > 1000 fold |
